This is an account of results in paper PMC9305425 (Chemmedchem, 2022).

One data set deals with T1, oxidized VcDsbA (Vibrio cholerae serotype O1, UniProt P32557).
T1 construct: made in house; host or cells: E. coli BL21(DE3)
The experiment in a line: biochemical. Type of data set: binding. The note with it: for Kd: 1H-15N HSQC titration, one-site binding model, 100 μM 15N-labeled oxidized VcDsbA, 298 K, read-out: equilibrium dissociation constant (KD); for extent of chemical shift perturbations (CSP) in 1H-15N HSQC of VcDsbA: single-point addition of compound (1 mM) to VcDsbA (100 μM), compared with other hits / analogues.

The target in data set [1] is T2, oxidized EcDsbA (Escherichia coli, UniProt P0AEG4). Briefly: biochemical. The procedure: ITC was performed using a MicroCal iTC200 instrument (GE Healthcare). […] Titrations were conducted at 25 °C using 15 consecutive injections of 2.5 μL with 180 s intervals and a stirring speed of 700 rpm. […] Every interaction was tested in triplicate and the values given represent mean and standard error of mean (SEM) from these triplicate analyses.
Isothermal Titration Calorimetry (ITC).
EcDsbA (A)/VcDsbA (B). Each experiment was conducted in triplicate; a single replicate
representative of the acquired ITC data is shown.
(1 picture or pasted object on this page, not shown here)

The conditions of data set [2]: 2D [1H,1H]-NOESY; for solubility / aggregation in aqueous buffer: 298 K.
Procedure: Solubility test of benzimidazole 2 in aqueous buffer. 2D [1H,1H]-NOESY of
benzimidazole 2 at 4 mM in D2O NMR buffer (50 mM NaPi, 25 mM NaCl, pH 6.5; 2% D6-
Data set [3] concerns the target VcDsbA. The conditions noted are these: cited from earlier work.
In a further data set the target is EcDsbA. The note with it: cited from earlier work.
Data set [4] has as its system VcDsbA. The conditions noted are these: cited from earlier work. This is another data set of the same source.
The target of data set [5] is T2, oxidized EcDsbA. Briefly: biochemical. Type of data set: binding. More on the design: made in house; host or cells: E. coli BL21(DE3).
In data set [6] the target is T3, unlabelled oxidized VcDsbA (Vibrio cholerae serotype O1, UniProt P32557).
T3 construct: made in house; host or cells: E. coli BL21(DE3)
The experiment in a line: Ligand-detected 1D 19F NMR affinity estimation. The conditions noted are these: change in 19F chemical shift at two protein:ligand ratios, VcDsbA 10 μM. It counts as binding. From the text:
Residues with a CSP >0.05 ppm at the highest ligand concentration tested were mapped onto the VcDsbA structure (Figure 2C, D). The residues showing the largest CSP were localized within the hydrophobic groove, adjacent to the active site (Figure 2D). […] The K D for the VcDsbA‐benzimidazole 2 interaction was also estimated using ligand‐detected 1D ^19F‐NMR (Figure 2F). The ^19F chemical shift of the CF3 group in benzimidazole 2 has a chemical shift of −60.38 ppm in the absence of protein and was perturbed upon in a concentration‐dependent fashion upon addition of VcDsbA. The change in the chemical shift of the ^19F signal at two different protein : ligand ratios was used to estimate the K D of the interaction.[20]
Affinity estimation from ligand‐detected ^19F NMR. The change in the resonance frequency of the single ^19F signal in the 1D ^19F NMR spectrum of benzimidazole 2 was used to estimate the binding affinity using equation 2.[43] (2) KD=γL1-L2/1-γ
where γ is described as ΔδF1/ΔδF2 and ΔδF1 and ΔδF2 denote the changes in chemical shift of the fluorine signal of benzimidazole 2 in the absence of VcDsbA and in presence of VcDsbA (10.0 μM) at ligand concentrations of [L]1 and [L]2, respectively.

The structures appear in SMILES notation. Where “and” joins values, the source holds several entries; their conditions need not be identical. Identical values can stand only once. Like-named read-outs stand apart in the source and are kept apart here.

T2 sequence (P0AEG4 20-208): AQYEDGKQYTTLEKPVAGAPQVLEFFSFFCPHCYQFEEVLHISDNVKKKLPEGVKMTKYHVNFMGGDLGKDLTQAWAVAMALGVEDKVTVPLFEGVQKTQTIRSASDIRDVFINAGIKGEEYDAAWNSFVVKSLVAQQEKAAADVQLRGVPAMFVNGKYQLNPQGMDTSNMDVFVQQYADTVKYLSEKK
T1 sequence (P32557 20-200): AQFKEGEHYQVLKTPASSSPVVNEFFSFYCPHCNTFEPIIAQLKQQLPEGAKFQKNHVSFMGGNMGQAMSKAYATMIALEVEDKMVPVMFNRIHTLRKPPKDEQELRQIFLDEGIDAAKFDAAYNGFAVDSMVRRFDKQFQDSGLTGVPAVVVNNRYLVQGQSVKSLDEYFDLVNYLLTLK
T3 sequence (P32557 20-200): as above

As a reminder, the Kd is a measure of binding affinity in units of concentration. As for `OCCCc1nc2ccc(C(F)(F)F)cc2[nH]1` [benzimidazole 1], at oxidized VcDsbA, the dissociation constant Kd stood at 610 ± 150 µM and the “extent of chemical shift perturbations (CSP) in 1H-15N HSQC of VcDsbA” value was “largest chemical shift perturbations”.
On to `C[C@H](CCC(=O)NCCS(=O)(=O)O)[C@H]1CC[C@H]2[C@@H]3[C@H](O)C[C@@H]4C[C@H](O)CC[C@]4(C)[C@H]3C[C@H](O)[C@]12C` [TC, sodium taurocholate], for which the “N (stoichiometry)” value on oxidized EcDsbA [1] is on record as 1. For the same compound, the ΔH at oxidized EcDsbA [1] is reported as -6551 ± 273 cal/mol. Also, the ΔS at oxidized EcDsbA [1] is reported as -6.11 cal/mol/deg. In addition, the Kd at oxidized EcDsbA [1] (KD) was 428 ± 44 µM; on oxidized EcDsbA [1] (association constant K), 340 µM; on VcDsbA [3], 40 ± 2.5 µM; on EcDsbA, 146 ± 7 µM; at oxidized EcDsbA [5] (KD), 224 µM and ~224 µM. For the same compound, the “solubility / aggregation in aqueous buffer” value in data set [2] ([TC]set = 4 mM in D2O NMR buffer) is “no aggregation”. Moreover, the “VcDsbA substrate oxidation in vivo” value with VcDsbA [4] is given as “inhibit VcDsbA substrate oxidation in vivo”. The “redox state of VcDsbA” value in the data set on VcDsbA [4] is “able to affect the redox state of VcDsbA”. Besides, on oxidized EcDsbA [5], the “effect on the oxidation state of DsbA” value is on record as “no effect on the oxidation state”.
`OCCCc1nc2c(Cl)cc(C(F)(F)F)cc2[nH]1` [benzimidazole 2]: the Kd was 446 ± 10 µM at oxidized VcDsbA, 480 µM in data set [6] and more than 3500 µM at oxidized EcDsbA [5]. Also, on oxidized VcDsbA (ratio of HSQC-derived KD values, VcDsbA over EcDsbA), the “selectivity for VcDsbA over EcDsbA” value is approximately 8 fold. Besides, the “extent of chemical shift perturbations (CSP) in 1H-15N HSQC of VcDsbA” value on oxidized VcDsbA is reported as “largest CSP”. For the same compound, the “solubility / aggregation in aqueous buffer” value in data set [2] (4 mM in D2O NMR buffer (50 mM NaPi, 25 mM NaCl, pH 6.5; 2% D6-DMSO; 98% D2O)) is “no aggregation”. Further, in data set [2] (mixing time 800 ms, concentration of 2.5 mM), the “solubility / aggregation in aqueous NMR buffer” value was “soluble and free from aggregation”.
